Test results published in paper PMC11003450, “Structure-property relationships of fluorinated carboxylic acid bioisosteres” (Bioorganic & medicinal chemistry letters, 2023).
Where two headings read alike, the source gives them in different places.

Key:
[1] = supplement csv; previously described phenylpropionic acid derivatives A-Y; ref [3]-[5]; cited from earlier work
[2] = supplement csv; previously described derivatives A-Y; ref [3]-[5]; cited from earlier work
[3] = pKa by potentiometric titration (Sirius T3)
[4] = logD7.4 by potentiometric titration (Sirius T3); conditions: n-octanol/aqueous buffer
[5] = PAMPA (parallel artificial membrane permeability assay, ran by Analiza); format: in vitro ADME; conditions: for Papp: PAMPA
Description: In this work, in order to compare the properties of fluorinated carboxylic acid surrogates with those of other commonly used nonfluorinated bioisosteres, we present the design and synthesis of a focused set of matched molecular pairs (MMPs), which include examples of substituted alcohols and phenols featuring one or more fluorine atoms, and the characterization of these compounds for key physicochemical properties such as acidity (pKa), lipophilicity (logD7.4 and permeability (logPapp) in a parallel artificial membrane permeability assay (PAMPA). The data presented allow for an assessment of the impact of incorporation of fluorine on the physicochemical properties of carboxylic acid surrogates.

[6] = difference between experimental and calculated pKa, experimental vs ChemAxon
[7] = pKa (anilinium/aniline), anilinium/aniline pKa, Table 1
[8] = pKa, acidic group (carboxylic acid, alcohol or phenol), Table 1
[9] = pH 7.4, logD7.4, n-octanol / aqueous buffer pH 7.4, Table 1
[10] = pH 7.4, logD7.4, supplement csv, compounds 1, 2, 3-10
[11] = class by Pe, read-out: PAMPA Permeability
[12] = read-out: PAMPA Pe (effective permeability)
[13] = pKa (anilinium/aniline), supplement csv, first value of cell, anilinium/aniline

Structure (SMILES)	logD7.4 [1]	pKa [2]	also measured
O=S1(=O)CC(CCc2ccccc2)(NS(=O)(=O)c2ccccc2)C1 [Compound H17]	1.89	10.22	
CC(=O)NC1(CCc2ccccc2)CS(=O)(=O)C1 [Compound H6]	1.18	>12	
CS(=O)(=O)Nc1cn(-c2ccccc2)nn1 [Compound H22]	0.06	6.34	
Nc1ccc(CCC(O)(C(F)F)C(F)F)cc1 [Compound 4]			pKa [3, 6]: 1 to 1.7; pKa [3, 7]: 4.79; pKa [3, 8]: > 12; logD [4, 9]: 1.46; logD [4, 10]: 1.46; PAMPA % retention (membrane retention) [5]: 0.02%; Papp [5, 11]: > 15 nm/s; Papp [5, 12]: 101 nm/s
Nc1ccc(CCC(=O)O)cc1 [Compound 2]			pKa [3, 7]: 5.17; pKa [3, 8]: 4.12; logD [4, 9]: -2.13; logD [4, 10]: -2.13; PAMPA % retention (membrane retention) [5]: 0.05%; Papp [5, 11]: < 15 nm/s
c1ccc(CCc2nnn[nH]2)cc1 [K]	-0.36	5.09	
CN(C)S(=O)(=O)Nc1cc(-c2ccccc2)on1 [Compound H21]	0.42	5.62	
Nc1ccc(Cc2cccc(O)c2SC(F)(F)F)cc1 [Compound 9]			pKa [3, 7]: 4.24; pKa [3, 8]: 9.51; logD [4, 9]: 2.72; logD [4, 10]: 2.72; Papp [5, 11]: > 15 nm/s; Papp [5, 12]: 72.8 nm/s
CN(C)S(=O)(=O)NC(=O)CCc1ccccc1 [Compound H2]	0.12	5.79	
CS(=O)(=O)NC1(CCc2ccccc2)CSC1 [Compound H10]	2.44	10.45	
Nc1ccc(Cc2cccc(O)c2C(F)(F)F)cc1 [Compound 7]			pKa [3, 7]: 4.69; pKa [3, 8]: 8.85; logD [4, 9]: 3.17; logD [4, 10]: 3.17; PAMPA % retention (membrane retention) [5]: 0.195%; Papp [5, 11]: > 15 nm/s; Papp [5, 12]: 138 nm/s
O=S(=O)(Nc1cc(-c2ccccc2)on1)c1ccccc1 [Compound H20]	0.99	6.62	
CC(=O)NOCCc1ccccc1 [Compound B2]		9.58	
NS(=O)(=O)CCc1ccccc1 [Compound G1]		10.04	
CC1(NS(=O)(=O)CCc2ccccc2)COC1 [Compound H5]	1.58	10.45	
Oc1cc(Cc2ccccc2)on1 [R]		5.36	
CS(=O)(=O)NC(=O)NCc1ccccc1 [I]	-1.19	5.04	
O=C1NC(=O)C(Cc2ccccc2)O1 (centres unmarked) [M]		5.86	
O=C1CC(=O)C(Cc2ccccc2)N1 (centres unmarked) [S]		6.08	
O=S(=O)(Nc1cn(-c2ccccc2)nn1)c1ccccc1 [Compound H23]	1.06	5.93	

Structure (SMILES)	logD7.4 [1]	pKa [2]	also measured
O=C1NC(=O)C(Cc2ccccc2)S1 (centres unmarked) [L]		6.19	
O=C1CCC(O)=C1Cc1ccccc1 [Compound T3]	-0.6	4.44	
CN(C)S(=O)(=O)NC1(CCc2ccccc2)CS(=O)(=O)C1 [Compound H18]	1.82	9.58	
Nc1ccc(CCC(O)C(F)F)cc1 (centres unmarked) [Compound 6]			pKa [3, 7]: 4.87; pKa [3, 8]: > 12; logD [4, 9]: 0.92; logD [4, 10]: 0.92; PAMPA % retention (membrane retention) [5]: 0.015%; Papp [5, 11]: > 15 nm/s; Papp [5, 12]: 102 nm/s
Oc1cccc(Cc2ccccc2)c1C(F)(F)F [Compound 32]			pKa ([3]; difference in Δ pKa between 32 and 7, Δ = isostere minus corresponding -COOH, 32 vs matched pair 7): 0.46; pKa [3, 8]: 8.91; logD [4, 9]: 4.29
O=S(=O)(NC1(CCc2ccccc2)CSC1)c1ccccc1 [Compound H11]	2.96	>12	
O=c1[nH]c(CCc2ccccc2)ns1 [O]		6.5	
O=S(=O)(Cc1ccccc1)c1ccccc1O [Compound W5]		7.12	
OC1(CCc2ccccc2)CSC1 [Compound X1]		>12	
CS(=O)(=O)NC1(CCc2ccccc2)C[S+]([O-])C1 (centres unmarked) [Compound H13]	0.87	9.87	
CC1=C(O)C(Cc2ccccc2)CC1=O (centres unmarked) [Compound T2]	-0.33	4.47	
O=C1CC(c2ccccc2)C=C1O (centres unmarked) [Compound U2]		8.28	
CONC(=O)CCc1ccccc1 [Compound B1]		9.47	
O=C(O)CCc1ccccc1 [Compound 1]			Papp [5, 11]: > 15 nm/s
[O-][S+](Cc1ccccc1)c1ccccc1O (centres unmarked) [Compound W4]		7.7	
Nc1ccc(Cc2cccc(O)c2[S+]([O-])C(F)(F)F)cc1 (centres unmarked) [Compound 10]			pKa [3, 7]: 4.21; pKa [3, 8]: 7.93; logD [4, 9]: 1.96; logD [4, 10]: 2; PAMPA % retention (membrane retention) [5]: 0.24%; Papp [5, 11]: > 15 nm/s; Papp [5, 12]: 105 nm/s
Nc1ccc(CCC(O)C(F)(F)F)cc1 (centres unmarked) [Compound 5]			pKa [3, 7]: 4.72; pKa [3, 13]: 4.9; pKa [3, 8]: 11.7; logD [4, 9]: 1.83; logD [4, 10]: 1.83; Papp [5, 11]: > 15 nm/s; Papp [5, 12]: 117 nm/s
Oc1c(F)cc(Cc2ccccc2)cc1F [Compound W1]		7.19	
Oc1ccccc1SCc1ccccc1 [Compound W3]	3.78	9.06	
CN(C)S(=O)(=O)Nc1cn(-c2ccccc2)nn1 [Compound H24]	0.69	6.42	

Structure (SMILES)	logD7.4 [1]	pKa [2]	also measured
CN(C)S(=O)(=O)NC1(CCc2ccccc2)COC1 [Compound H9]	1.96	11.02	
CN(C)S(=O)(=O)NC1(CCc2ccccc2)C[S+]([O-])C1 (centres unmarked) [Compound H15]	1.45	10.33	
[O-][S+]1CC(O)(CCc2ccccc2)C1 (centres unmarked) [Compound X2]		>12	
O=C1CCC(Cc2ccccc2)=C1O [Compound U1]		8.88	
OC1(CCc2ccccc2)COC1 [Y]		>12	
O=C(CCc1ccccc1)NO [Compound A1]		8.18	
O=S(=O)(NC1(CCc2ccccc2)COC1)c1ccccc1 [Compound H8]	2.76	10.29	
S=c1[nH]c(CCc2ccccc2)no1 [Q]		3.58	
Oc1c(F)ccc(Cc2ccccc2)c1F [Compound W2]		7.05	
Nc1ccc(CCC(O)(C(F)(F)F)C(F)(F)F)cc1 [Compound 3]			pKa [3, 6]: 1 to 1.7; pKa [3, 7]: 4.06; pKa [3, 13]: 4.88; pKa [3, 8]: 7.96; pKa ([3]; pKa, supplement csv, acidic group, compounds 1, 2, 3-10): 9.38; logD [4, 9]: 3.04; logD [4, 10]: 3.14; PAMPA % retention (membrane retention) [5]: 0.171%; Papp [5, 11]: > 15 nm/s; Papp [5, 12]: 120 nm/s
CS(=O)(=O)NC1(CCc2ccccc2)CS(=O)(=O)C1 [Compound H16]	1.03	9.44	
O=C1C=C(O)CC1Cc1ccccc1 (centres unmarked) [Compound T1]	-0.7	4.01	
O=S(O)CCc1ccccc1 [F]		2.1	
O=S(=O)(NC1(CCc2ccccc2)C[S+]([O-])C1)c1ccccc1 (centres unmarked) [Compound H14]	0.76		
O=[PH](O)CCc1ccccc1 [D]		1.98	
O=c1[nH]c(CCc2ccccc2)no1 [N]		5.73	
CC(=O)N(O)CCc1ccccc1 [Compound A2]		8.83	
CS(=O)(=O)Nc1cc(-c2ccccc2)on1 [Compound H19]	-0.42	5.22	
CN(C)S(=O)(=O)NC1(CCc2ccccc2)CSC1 [Compound H12]	2.83	11.93	
Nc1ccc(Cc2cccc(O)c2OC(F)(F)F)cc1 [Compound 8]			pKa [3, 7]: 4.58; pKa [3, 8]: 9.67; logD [4, 9]: 2.29; logD [4, 10]: 2.29; PAMPA % retention (membrane retention) [5]: 0.36%; Papp [5, 11]: > 15 nm/s; Papp [5, 12]: 86.3 nm/s
